Laboratory results as given in patent publication US7501430B2 (ArQule, Inc., priority 2006, dated 2009).
pIC50: −log10 of the molar value.

biological target: T1, mutant B-RAF (Homo sapiens, UniProt P15056, V600E); test: RAF biochemical assay (MEK-1 phosphorylation, anti-phospho MEK1/2 detection); conditions: @ 10 uM; read-out: Mutant B-RAF % inhibition
T1 construct: purchased Upstate (Charlottesville, Va.)
In short: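 Detection is by ELISA: after a 30 min room-temperature reaction, plate-captured GST-MEK-1 is probed with anti-phospho MEK1/2, then an AP-tagged secondary antibody with fluorescent Attophos read-out.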

T1 sequence (P15056 whole entry V600E): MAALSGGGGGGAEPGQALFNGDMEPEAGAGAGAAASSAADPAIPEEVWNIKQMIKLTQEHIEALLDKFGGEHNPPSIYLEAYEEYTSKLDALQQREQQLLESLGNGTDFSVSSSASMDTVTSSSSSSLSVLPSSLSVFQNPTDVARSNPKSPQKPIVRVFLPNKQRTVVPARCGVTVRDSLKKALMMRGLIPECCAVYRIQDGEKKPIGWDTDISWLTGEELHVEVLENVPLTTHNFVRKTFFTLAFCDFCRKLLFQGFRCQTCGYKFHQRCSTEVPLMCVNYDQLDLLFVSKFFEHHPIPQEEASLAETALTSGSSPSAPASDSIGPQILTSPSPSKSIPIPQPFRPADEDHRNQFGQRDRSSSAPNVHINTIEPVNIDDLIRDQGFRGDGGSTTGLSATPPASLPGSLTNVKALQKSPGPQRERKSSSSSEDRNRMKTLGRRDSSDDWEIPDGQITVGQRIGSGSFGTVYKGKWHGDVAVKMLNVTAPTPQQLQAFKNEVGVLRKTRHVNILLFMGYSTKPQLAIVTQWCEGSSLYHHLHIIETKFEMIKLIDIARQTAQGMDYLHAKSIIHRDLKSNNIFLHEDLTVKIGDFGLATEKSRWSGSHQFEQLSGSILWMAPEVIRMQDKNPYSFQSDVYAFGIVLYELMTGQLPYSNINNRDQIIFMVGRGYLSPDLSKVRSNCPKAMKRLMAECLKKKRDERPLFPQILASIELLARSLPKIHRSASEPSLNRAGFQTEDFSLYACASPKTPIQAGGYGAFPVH

inhibition at 10 µM [%] | SMILES
54 | O=C(NCc1ccco1)N1CCC[C@@H](Nc2nccc(-c3c(-c4ccc(F)c(F)c4)nc4sccn34)n2)C1 [Example 88, (3R)-3-({4-[6-(3,4-difluorophenyl)imidazo[2,1-b][1,3]thiazol-5-yl]pyrimidin-2-yl}amino)-N-(2-furylmethyl)piperidine-1-carboxamide]
54 | CN(C)c1ccc(NC(=O)N2CCC[C@@H](Nc3nccc(-c4c(-c5ccc(F)c(F)c5)nc5sccn45)n3)C2)cc1 [Example 86, (3R)-3-({4-[6-(3,4-difluorophenyl)imidazo[2,1-b][1,3]thiazol-5-yl]pyrimidin-2-yl}amino)-N-[4-(dimethylamino)phenyl]pip-eridine-1-carboxamide]
95 | O=S(=O)(c1ccc(Cl)cc1)N1CC[C@H](Nc2nccc(-c3c(-c4ccc(F)cc4)nc4sccn34)n2)C1 [Example 276, N-{(3S)-1-[(4-chlorophenyl)sulfonyl]pyrrolidin-3-yl}-4-[6-(4-fluorophenyl)imidazo[2,1-b][1,3]thiazol-5-yl]pyrimidin-2-amine]
53 | COc1cccc(-c2nc3sccn3c2-c2ccnc(NC3CCN(C(=O)NCc4ccccc4)CC3)n2)c1 [Example 233, N-benzyl-4-({4-[6-(3-methoxyphenyl)imidazo[2,1-b][1,3]thiazol-5-yl]pyrimidin-2-yl}amino)piperidine-1-carboxamide]
76 | O=C(NCc1ccco1)N1CCC(Nc2nccc(-c3c(-c4ccc(F)c(F)c4)nc4sccn34)n2)CC1 [Example 243, 4-({4-[6-(3,4-difluorophenyl)imidazo[2,1-b][1,3]thiazol-5-yl]pyrimidin-2-yl}amino)-N-(2-furylmethyl)piperidine-1-carboxamide]

Second part, the molecule before the results:

SMILES | inhibition at 10 µM [%]
N#Cc1cccc(-c2nc3sccn3c2-c2ccnc(NC3CCNCC3)n2)c1 [Example 271, 3-{5-[2-(piperidin-4-ylamino)pyrimidin-4-yl]imidazo[2,1-b][1,3]thiazol-6-yl}benzonitrile] | 58
Cc1ccccc1-c1nc2occn2c1-c1ccnc(NC2CCNCC2)n1 [Example 304, 4-[6-(2-methylphenyl)imidazo[2,1-b][1,3]oxazol-5-yl]-N-piperidin-4-ylpyrimidin-2-amine] | 56
CC(=O)NC(CO)C(=O)N1CCC(Nc2nccc(-c3c(-c4ccc(F)cc4)nc4occn34)n2)CC1 (stereo not drawn) [Example 212, N-[2-[4-({4-[6-(4-fluorophenyl)imidazo[2,1-b][1,3]oxazol-5-yl]pyrimidin-2-yl}amino)piperidin-1-yl]-1-(hydroxymethyl)-2-oxoethyl]acetamide] | 43
O=S(=O)(c1cc(C(F)(F)F)cc(C(F)(F)F)c1)N1CCC[C@@H](Nc2nccc(-c3c(-c4ccc(F)cc4)nc4occn34)n2)C1 [Example 56, N-((3R)-1-{[3,5-bis(trifluoromethyl)phenyl]sulfonyl}piperidin-3-yl)-4-[6-(4-fluorophenyl)imidazo[2,1-b][1,3]oxazol-5-yl]pyrimidin-2-amine] | 57

same assay, conditions: read-out: Mutant B-RAF % inhibition

SMILES | inhibition at 10 µM [%]
O=C(N1CCOCC1)N1CCC[C@@H](Nc2nccc(-c3c(-c4ccc(F)cc4)nc4occn34)n2)C1 [Example 41, 4-[6-(4-fluorophenyl)imi-dazo[2,1-b][1,3]oxazol-5-yl]-N-[(3R)-1-(morpholin-4-ylcarbonyl)piperidin-3-yl]pyrimidin-2-amine] | 38

same assay, conditions: read-out: Mutant B-RAF IC50

pIC50 | SMILES
5.91 | O=C(Nc1ccc(F)c(F)c1)N1CCC(Nc2nccc(-c3c(-c4ccc(F)cc4)nc4occn34)n2)CC1 [Example 193, N-(3,4-difluorophenyl)-4-({4-[6-(4-fluorophenyl)imidazo[2,1-b][1,3]oxazol-5-yl]pyrimidin-2-yl}amino)piperidine-1-carboxamide]
7.59 | Cc1cn2c(-c3ccnc(N[C@@H]4CCCN(S(=O)(=O)c5ccc(Cl)cc5)C4)n3)c(-c3ccc(F)cc3)nc2s1 [Example 96, N-{(3R)-1-[(4-chlorophenyl)sulfonyl]piperidin-3-yl}-4-[6-(4-fluorophenyl)-2-methyl-imidazo[2,1-b][1,3]thiazol-5-yl]pyrimidin-2-amine]
6.98 | COc1cc(-c2nc3sccn3c2-c2ccnc(N[C@@H]3CCCN(S(=O)(=O)c4ccc(Cl)cc4)C3)n2)ccc1F [Example 348, N-{(3R)-1-[(4-chlorophenyl)sulfonyl]piperidin-3-yl}-4-[6-(4-fluoro-3-methoxyphenyl)imidazo[2,1-b][1,3]thiazol-5-yl]pyrimidin-2-amine]
6.64 | COc1cccc(-c2nc3sccn3c2-c2ccnc(N[C@@H]3CCCN(S(=O)(=O)c4ccc(CCC(=O)O)cc4)C3)n2)c1 [Example 118, 3-(4-{[(3R)-3-({4-[6-(3-methoxyphenyl)imidazo[2,1-b][1,3]thiazol-5-yl]pyrimidin-2-yl}amino)piperidin-1-yl]sulfonyl}phenyl)propanoic acid]
6.32 | CN(C)c1ccc(C(=O)N2CCC[C@@H](Nc3nccc(-c4c(-c5ccc(F)cc5)nc5occn45)n3)C2)cc1 [Example 39, N-{(3R)-1-[4-(dimethyl-amino)benzoyl]piperidin-3-yl}-4-[6-(4-fluorophenyl)imidazo[2,1-b][1,3]oxazol-5-yl]pyrimidin-2-amine]
5.90 | Fc1ccc(-c2nc3sccn3c2-c2ccnc(N[C@@H]3CCCNC3)n2)cc1F [Example 78, 4-[6-(3,4-difluorophenyl)imidazo[2,1-b][1,3]thiazol-5-yl]-N-[(3R)-piperidin-3-yl]pyrimidin-2-amine]
< 5.00 | COc1cc([N+](=O)[O-])ccc1NC(=O)N1CCC[C@@H](Nc2nccc(-c3c(-c4ccc(F)cc4)nc4occn34)n2)C1 [Example 75, (3R)-3-({4-[6-(4-fluorophenyl)imidazo[2,1-b][1,3]oxazol-5-yl]pyrimidin-2-yl}amino)-N-(2-methoxy-4-nitrophenyl)piperidine-1-carboxamide]
6.16 | O=S(=O)(c1ccc(Cl)cc1)N1CCC[C@@H](Nc2nccc(-c3c(-c4ccc(/C=N/O)cc4)nc4sccn34)n2)C1 [Example 392, 4-{5-[2-({(3R)-1-[(4-chlorophenyl)sulfonyl]piperidin-3-yl}amino)pyrimidin-4-yl]imidazo[2,1-b][1,3]thiazol-6-yl}benzaldehyde oxime]

Further lines, the molecule ahead of its results:

SMILES | pIC50
Cc1nc(S(=O)(=O)N2CCC(Nc3nccc(-c4c(-c5ccc(F)cc5)nc5occn45)n3)CC2)cn1C [Example 248, N-{1-[(1,2-dimethyl-1H-imidazol-4-yl)sulfonyl]piperidin-4-yl}-4-[6-(4-fluorophenyl)imidazo[2,1-b][1,3]oxazol-5-yl]pyrimidin-2-amine] | 6.03
CCCS(=O)(=O)N1CCC[C@@H](Nc2nccc(-c3c(-c4cccc(O)c4)nc4occn34)n2)C1 [Example 393, 3-[5-(2-{[(3R)-1-(propylsulfonyl)piperidin-3-yl]amino}pyrimidin-4-yl)imidazo[2,1-b][1,3]oxazol-6-yl]phenol] | 6.48
O=C(COc1ccc(Cl)cc1)N1CCC(Nc2nccc(-c3c(-c4ccc(F)cc4)nc4occn34)n2)CC1 [Example 160, N-{1-[(4-chlorophenoxy)acetyl]piperidin-4-yl}-4-[6-(4-fluorophenyl)imidazo[2,1-b][1,3]oxazol-5-yl]pyrimidin-2-amine] | 5.41
Oc1cccc(-c2nc3occn3c2-c2ccnc(N[C@@H]3CCCNC3)n2)c1 [Example 333, 3-(5-{2-[(3R)-piperidin-3-ylamino]pyrimidin-4-yl}imidazo[2,1-b][1,3]oxazol-6-yl}phenol] | 6.04
Cc1cn2c(-c3ccnc(NC4CCN(C(=O)NCc5ccccc5)CC4)n3)c(-c3ccc(F)cc3)nc2s1 [Example 241, N-benzyl-4-({4-[6-(4-fluorophenyl)-2-methylimidazo[2,1-b][1,3]thiazol-5-yl]pyrimidin-2-yl}amino)piperidine-1-carboxamide] | 5.60
COc1cccc(-c2nc3sccn3c2-c2ccnc(NC3CCN(S(=O)(=O)c4ccc(CCC(=O)O)cc4)CC3)n2)c1 [Example 270, 3-(4-{[4-({4-[6-(3-methoxyphenyl)imidazo[2,1-b][1,3]thiazol-5-yl]pyrimidin-2-yl}amino)piperidin-1-yl]sulfonyl}phenyl)propanoic acid] | 6.50
COc1ccc(-c2nc3sccn3c2-c2ccnc(NC3CCN(S(=O)(=O)c4ccc(Cl)cc4)CC3)n2)cc1 [Example 262, N-{1-[(4-chlorophenyl)sulfonyl]piperidin-4-yl}-4-[6-(4-methoxyphenyl)imidazo[2,1-b][1,3]thiazol-5-yl]pyrimidin-2-amine] | < 5.52
COc1ccc(C(=O)N2CCC(Nc3nccc(-c4c(-c5ccc(F)cc5)nc5occn45)n3)CC2)cc1 [Example 158, 4-[6-(4-fluorophenyl)imidazo[2,1-b][1,3]oxazol-5-yl]-N-[1-(4-methoxybenzoyl)piperidin-4-yl]pyrimidin-2-amine] | 6.33
Cc1cn2c(-c3ccnc(NC4CCN(S(=O)(=O)c5ccc(F)cc5)CC4)n3)c(-c3ccc(F)cc3)nc2s1 [Example 219, 4-[6-(4-fluorophenyl)-2-methylimidazo[2,1-b][1,3]thiazol-5-yl]-N-{1-[(4-fluorophenyl)sulfonyl]piperidin-4-yl}pyrimidin-2-amine] | 7.29
O=C(C1CCCCC1)N1CCC[C@@H](Nc2nccc(-c3c(-c4ccc(F)cc4)nc4occn34)n2)C1 [Example 31, N-[(3R)-1-(cyclohexylcarbonyl)piperidin-3-yl]-4-[6-(4-fluorophenyl)imidazo[2,1-b][1,3]oxazol-5-yl]pyrimidin-2-amine] | 5.53
NCCCC(=O)Nc1ccccc1-c1nc2sccn2c1-c1ccnc(N[C@@H]2CCCN(S(=O)(=O)c3ccc(Cl)cc3)C2)n1 [Example 136, 4-amino-N-(2-{5-[2-({(3R)-1-[(4-chlorophenyl)sulfonyl]piperidin-3-yl}amino)pyrimidin-4-yl]imidazo[2,1-b][1,3]thiazol-6-yl}phenyl)butanamide] | < 5.52
O=C(c1ccccc1)N1CCC(Nc2nccc(-c3c(-c4ccc(F)cc4)nc4occn34)n2)CC1 [Example 159, N-(1-benzoylpiperidin-4-yl)-4-[6-(4-fluorophenyl)imidazo[2,1-b][1,3]oxazol-5-yl]pyrimidin-2-amine] | 6.00
